We go through 4 compounds from patent publication US20030069187A1, “Elastase inhibitors” (priority 2001, published 2003).

The target in assay [1] is T1, porcine pancreatic elastase (PPE) (Sus scrofa, UniProt P00772).
T1 construct: purchased Calbiochem, San Diego, Calif
The assay is described as follows: Elastase inhibitory capacity assay with succinylated elastin substrate. Format: biochemical. The settings on record: 0.029 U PPE, 200 μg succinylated elastin; for increase in elastase inhibitory capacity compared to total EDP: 37° C. 30 min, % inhibition standardized to μg protein, p<0.001. The procedure: FIG. 1 is a bar graph depicting results from experiments in which the inhibitory capacity of each EDP isolate was evaluated in triplicate using 200 μg of succinylated elastin (Rao et al., 1997; Mathrubutham et al., 1998), 30 μg of Total EDP, […] of G-25 fractions and RP-HPLC fractions and 0.029 U PPE in 150 μl with 50 mM sodium borate pH8.5. Reactions were incubated at 37° C. for 30 minutes, then treated with 2,4,6-trinitrobenzene sufonic acid. Absorbance at A450nm was determined after 20 min at room temperature. Elastase inhibitory capacity was evaluated by comparing the activity of PPE in the presence and absence of EDP, where elastase in the absence of EDP was considered to represent 100% elastase activity. The data was standardized to protein content and is presented as % inhibition per μg of protein. […] PEP7 is VPG; PEP8 is AGIP and PEP9 is AFP.
Total EDP was fractionated on a G-25 Sephadex column equilibrated with 50 mM sodium borate pH 8.5 at a flow rate of 0.7 ml/minute. G-25 inhibitory fractions were then analyzed by reverse phase high performance liquid chromatography (RP-HPLC) using a C-18 column (Vydac, Hesperia, Calif.) with 5% acetonitrile, 0.1% triflouroacetic acid pH 2.3 as RP buffer at a flow rate of 0.5 ml/minutes and monitored at A205nm. Fractions were collected, dried, and resuspended in 50 μl water and assayed for elastase inhibitory capacity (Rao et al., 1997; Mathrabutham et al., 1998). The inhibitory capacity of G-25 and RP-HPLC EDP fractions were evaluated (Rao et al., 1997; Mathrabutham et al., 1998) using 3 μg of G-25 fraction and RP-HPLC peptide with 0.029 U PPE. Percentage inhibitory capacity was evaluated by comparing the activity of PPE in the presence and absence (100% activity) of EDP and standardized to μg protein. The inhibitor constant (Ki) was experimentally calculated (Lineweaver et al., 1936). […]

Another assay deals with elastase. Particulars: other elastase inhibitors, compared with AFP; cited from earlier work.

T1 sequence (P00772 27-266): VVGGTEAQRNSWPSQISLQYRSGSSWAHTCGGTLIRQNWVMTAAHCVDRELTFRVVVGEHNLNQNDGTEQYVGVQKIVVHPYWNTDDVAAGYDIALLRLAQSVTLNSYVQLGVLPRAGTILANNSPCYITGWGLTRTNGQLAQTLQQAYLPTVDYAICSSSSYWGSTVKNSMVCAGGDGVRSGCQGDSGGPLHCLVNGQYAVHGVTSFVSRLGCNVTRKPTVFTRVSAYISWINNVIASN

“Ala-Gly-Ile-Pro (AGIP; printed: Ala-Gly-Ile-Pro)”: the “increase in elastase inhibitory capacity compared to total EDP” value in assay [1] worked out at 4.3 fold.

Take Val-Pro-Gly [VPG]: the “increase in elastase inhibitory capacity compared to total EDP” value in assay [1] amounted to 4.8 fold.

On to `CC(C)C[C@H](NC(=O)N[C@H](C(=O)N[C@@H](CCC(N)=O)C(=O)N[C@@H](C)C=O)[C@@H]1CCNC(=N)N1)C(=O)O` [elastatinal], for which the Ki on elastase is 50 µM.

Take VGVAPG: the “elastase inhibition (% inhibition per μg of protein)” value in assay [1] (FIG. 1) is on record as “elastase inhibition is a characteristic that is not shared by all EDPs”.

The Ki is the dissociation constant of the complex between target and ligand, obtained from inhibition or displacement.
